Measured values taken from the supplement of paper PMC7287046.

Assays:
Settings in all cases: exposure time: 72 h
U251 [1] = assay: HSA synergy score (Combenefit); higher = more synergy
Protocol: (§1)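 The same 6x6 dose matrices of drug pairs on glioma cell lines (72 h, CellTiter-Glo viability normalised to DMSO, triplicate) were scored with Combenefit. The Loewe, Bliss and HSA synergy scores are given; paper thresholds are Loewe 7.8 and Bliss 2.5.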

U87 [2] = assay: as above
Protocol: as §1

U118 [3] = assay: as above
Protocol: as §1

KNS-42 [4] = assay: as above
Protocol: as §1

T98G [5] = assay: as above
Protocol: as §1

SF268 [6] = assay: as above
Protocol: as §1

AM-38 [7] = assay: as above
Protocol: as §1

SF539 [8] = assay: as above
Protocol: as §1

SNB75 [9] = assay: as above
Protocol: as §1

U251 [10] = assay: Loewe synergy score (Combenefit); higher = more synergy; extreme values may be limits of the assay
Protocol: as §1

U87 [11] = assay: as above
Protocol: as §1

U118 [12] = assay: as above
Protocol: as §1

KNS-42 [13] = assay: as above
Protocol: as §1

T98G [14] = assay: as above
Protocol: as §1

SF268 [15] = assay: as above
Protocol: as §1

AM-38 [16] = assay: as above
Protocol: as §1

SF539 [17] = assay: as above
Protocol: as §1

SNB75 [18] = assay: as above
Protocol: as §1

U251 [19] = assay: Bliss synergy score (Combenefit); higher = more synergy; extreme values may be limits of the assay
Protocol: as §1

U87 [20] = assay: as above
Protocol: as §1

U118 [21] = assay: as above
Protocol: as §1

KNS-42 [22] = assay: as above
Protocol: as §1

T98G [23] = assay: as above
Protocol: as §1

SF268 [24] = assay: as above
Protocol: as §1

AM-38 [25] = assay: as above
Protocol: as §1

SF539 [26] = assay: as above
Protocol: as §1

SNB75 [27] = assay: as above
Protocol: as §1

U251 [28] = assay: Chou-Talalay combination index (dimensionless); higher = less synergy (more antagonism)
Protocol: (§2)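 Glioma cell lines were treated for 72 h with a 6x6 matrix of two drugs, each in twofold dilutions with the top dose at the single-drug IC50. Viability was read by CellTiter-Glo and normalised to DMSO controls, in triplicate. The Chou-Talalay combination index was computed by the median effect principle; CI < 0.8 means synergy.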

U87 [29] = assay: as above
Protocol: as §2

U118 [30] = assay: as above
Protocol: as §2

T98 = assay: as above
Protocol: as §2

AM38 = assay: as above
Protocol: as §2

KNS42 = assay: as above
Protocol: as §2

SF268 [31] = assay: as above
Protocol: as §2

SF539 [32] = assay: as above
Protocol: as §2

SNB75 [33] = assay: as above
Protocol: as §2

Row | Structure (SMILES) | HSA synergy score (U251 [1]) | HSA synergy score (U87 [2]) | HSA synergy score (U118 [3]) | HSA synergy score (KNS-42 [4]) | HSA synergy score (T98G [5]) | HSA synergy score (SF268 [6]) | HSA synergy score (AM-38 [7]) | HSA synergy score (SF539 [8]) | HSA synergy score (SNB75 [9]) | Loewe synergy score (U251 [10]) | Loewe synergy score (U87 [11]) | Loewe synergy score (U118 [12]) | Loewe synergy score (KNS-42 [13]) | Loewe synergy score (T98G [14]) | Loewe synergy score (SF268 [15]) | Loewe synergy score (AM-38 [16]) | Loewe synergy score (SF539 [17]) | Loewe synergy score (SNB75 [18]) | Bliss synergy score (U251 [19]) | Bliss synergy score (U87 [20]) | Bliss synergy score (U118 [21]) | Bliss synergy score (KNS-42 [22]) | Bliss synergy score (T98G [23]) | Bliss synergy score (SF268 [24]) | Bliss synergy score (AM-38 [25]) | Bliss synergy score (SF539 [26]) | Bliss synergy score (SNB75 [27]) | Chou-Talalay combination index (U251 [28]) | Chou-Talalay combination index (U87 [29]) | Chou-Talalay combination index (U118 [30]) | Chou-Talalay combination index (T98) | Chou-Talalay combination index (AM38) | Chou-Talalay combination index (KNS42) | Chou-Talalay combination index (SF268 [31]) | Chou-Talalay combination index (SF539 [32]) | Chou-Talalay combination index (SNB75 [33])
1 | C#Cc1cccc(Nc2ncnc3cc(OCCOC)c(OCCOC)cc23)c1 [Erlotinib] + O=c1[nH]c2ccccc2n1C1CCN(Cc2ccc(-c3[nH]c4cc5ncnc5cc4nc3-c3ccccc3)cc2)CC1 [Akt inhibitor VIII] | 13.6 | 0.0775 | 17 | 14 | 6.87 | 10.1 | 0 | 9.63 | 13.2 | 10.4 | 0 | 7.49 | 12.3 | 1.87 | 3.87 | 0 | 7.22 | 4.44 | 12.6 | 0 | 4.68 | 7.67 | 0.127 | 1.25 | 0 | 0.771 | 10.2 | 0.526 | 1.26 | 0.807 | 0.775 | 0.914 | 0.754 | 0.97 | 0.906 | 0.763
2 | O=c1[nH]c2ccccc2n1C1CCN(Cc2ccc(-c3[nH]c4cc5ncnc5cc4nc3-c3ccccc3)cc2)CC1 [Akt inhibitor VIII] + N#CC(c1ccnc(NCCc2cccnc2)n1)c1nc2ccccc2s1 [AS601245] | 3.96 | 12.3 | 12.4 | 3.65 | 17.9 | 8.59 | 14 | 0.651 | 5.96 | 3.96 | 6.85 | 7.71 | 1.66 | 9.66 | 0.94 | 11.2 | 0.638 | 0.62 | 3.96 | 10.4 | 5.46 | 0.964 | 9.74 | 1.39 | 8.16 | 0.0617 | 1.31 | 0.641 | 0.0154 | 0.264 | 0.031 | 0.584 | 0.979 | 0.805 | 0.966 | 0.89
3 | CCC(=O)N1CCN(c2ccc(-n3c(=O)ccc4cnc5ccc(-c6cnc7ccccc7c6)cc5c43)cc2C(F)(F)F)CC1 [Torin1] + N#CC(c1ccnc(NCCc2cccnc2)n1)c1nc2ccccc2s1 [AS601245] | 2.53 | 0 | 2.19 | 1.23 | 0.235 | 3.85 | 0 | 11.4 | 0.213 | 0.0482 | 0 | 2.14 | 0 | 0.121 | 0.416 | 0 | 2.66 | 0 | 0.142 | 0 | 0 | 0 | 0 | 0.983 | 0 | 4.4 | 0 | 0.948 | 2.44 | 1.07 | 0.962 | 1.32 | 1.02 | 0.963 | 0.864 | 1.11
4 | CC(=O)O[C@@]12CO[C@@H]1C[C@H](O)[C@@]1(C)C(=O)[C@H](O)C3=C(C)[C@@H](OC(=O)[C@H](O)[C@@H](NC(=O)OC(C)(C)C)c4ccccc4)C[C@@](O)([C@@H](OC(=O)c4ccccc4)[C@H]21)C3(C)C [Docetaxel] + CCCCCCCCCCCC1=C(O)C(=O)C=C(O)C1=O [Embelin] | 9.62 | 0.7 | 0.358 | 6.6 | 2.71 | 1.82 | 1.16 | 3.01 | 3.76 | 0.944 | 0.7 | 0.129 | 3.76 | 2.71 | 0 | 0.74 | 2.91 | 0.195 | 3.66 | 0.7 | 0.219 | 3.74 | 0.71 | 0.0571 | 0 | 0.24 | 0.144 | 0.659 | 0.827 | 0.982 | 0.911 | 1.08 | 0.349 | 1.01 | 0.835 | 0.849
